Patent US20100197608A1, “USE OF MELANOTROPHIN-POTENTIATING FACTOR AS A THERAPEUTIC AGENT” (priority 2007, published 2010)
Where a SMILES comes first, the peptide text is derived from it.

Tested on: drug-resistant Mycobacterium tuberculosis
Conditions: drug-resistant Mycobacterium tuberculosis growth; peptide 10 micrograms per ml; seven days

For `NCCCC[C@H](NC(=O)[C@@H](N)CCCCN)C(=O)NCC(=O)N[C@@H](CCC(=O)O)C(=O)O` [MPF, Lys-Lys-Gly-Glu-OH] (H-KKGE-OH), the “% inhibition” value was 0.0%.
